This experiment deals with Two-spotted spider mites. The experiment can be described thus: Miticidal test on two-spotted spider mites. The experiment is classed as in vivo, Tetranychus urticae Koch. The settings on record: Tetranychus urticae, 48 h, 2 days after spraying, read-out: Mortality rate. From the text: Two-spotted spider mites from the Nagano prefecture, which are poorly sensitive to chemicals, were used as mite specimens. Preparation A and Preparation B were used as chemical specimens.
A plastic cup (trade name: KP-120, manufactured by Kohnoike plastic Co., Ltd.) was filled with tap water, and the plastic cup was covered with a lid having an incision therein. A piece of non-woven fabric (4.5×5.5 cm) was cut for about 4 cm parallel to its longer side 1 cm from the edge. The portion hanging loose was suspended inside the plastic cup through the incision. A kidney bean leaf (about 3.5×4.5 cm) was placed on the sufficiently soaked, non-woven fabric. Twenty female adults of two-spotted spider mites were released into each cup.
Preparation A and Preparation B each diluted with tap water to specific concentrations were mixed, and the mixture was sprayed in a volume of 2 ml using a spray tower (Potter Spray Tower, manufactured by Burkard Manufacturing Co. Ltd, at a spraying pressure of 5 lb/inch). The kidney bean leaf was placed in a thermostatic chamber having a temperature of 25±2° C. and a humidity of 60%. The numbers of live and dead mites were counted 2 days later. The mortality rate was calculated using the equation provided below.
For comparison, mortality rates were calculated in the same manner as above except that Formulation A and Formulation B each diluted with tap water to specific concentrations were used one without each other. Mortality rate=(1−V/W)×100 where V is the survival rate in the treated area, and W is the survival rate in the untreated area.
Furthermore, the effectiveness (E) anticipated from the miticide of the present invention was calculated using the Colby equation (Weeds 15, 20-22 (1967)) to obtain a mathematical effectiveness (%): E=x+y−(x·y/100) where E is the effectiveness expressed in % anticipated from Compound A and chlorfenapyr when used at concentrations of p and q, respectively; x is the effectiveness of Compound A when used at a concentration of p; and y is the effectiveness of chlorfenapyr when used at a concentration of q.

Drawing on US20060167091A1, “Acaricide” (priority 2003, published 2006), this text covers mortality for 2 compounds.

In the case of `COCCOC(=O)C(C#N)(C(=O)c1ccccc1C(F)(F)F)c1ccc(C(C)(C)C)cc1` (stereo not shown) [Compound A, methoxyethyl 2-(4-tert-butylphenyl)-2-(2-trifluoromethylbenzoyl)cyanoacetate], under “Compound A 12.5 ppm alone (chlorfenapyr 0 ppm), female adults on kidney bean leaf”, the mortality at 12.5 ppm was determined as 19%. Moreover, the mortality at 25 ppm (Compound A 25 ppm alone (chlorfenapyr 0 ppm)) worked out at 45%. Moreover, the mortality at 50 ppm (Compound A 50 ppm alone (chlorfenapyr 0 ppm)) was 48%. Further, the mortality at 100 ppm (Compound A 100 ppm alone (chlorfenapyr 0 ppm)) amounted to 25%. Where the note is “Compound A 200 ppm alone (chlorfenapyr 0 ppm)”, the mortality at 200 ppm is 66%.
For `CCOCn1c(-c2ccc(Cl)cc2)c(C#N)c(Br)c1C(F)(F)F` [chlorfenapyr, 4-bromo-2-(4-chlorophenyl)-1-ethoxymethyl-5-trifluoromethylpyrrole-3-carbonitrile], for the setting “chlorfenapyr 0.4 ppm alone (Compound A 0 ppm)”, the mortality at 0.4 ppm stood at 0%. The mortality at 1 ppm (chlorfenapyr 1 ppm alone (Compound A 0 ppm)) amounted to 0%. Besides, the mortality at 2 ppm (chlorfenapyr 2 ppm alone (Compound A 0 ppm)) stood at 0%. The mortality at 5 ppm (chlorfenapyr 5 ppm alone (Compound A 0 ppm)) came out at 0%. The mortality at 10 ppm (chlorfenapyr 10 ppm alone (Compound A 0 ppm)) was determined as 84%.
